Results on 2 compounds are retold here after publication PMC5838563, “Compounds producing an effective combinatorial regimen for disruption of HIV‐1 latency” (EMBO Molecular Medicine, 2017).

The subject of assay [1] is PKCδ/θ and IκBα/IκBε. Set-up: method as in Jiang et al, 2015. The following applies: 12 nM PEP005; ref Jiang et al, 2015; cited from earlier work.
The subject of assay [2] is HIV‐1 LTR (Jurkat^Tat LTR‐luciferase cell line). Description: Jurkat^Tat LTR‐luciferase reporter assay for HIV‐1 latency reversal. Conditions: Human immunodeficiency virus 1; 24 h treatment, percent activation relative to PMA. Format: cell-based. On the procedure: Activity of compounds identified for latency‐reversing activity in the primary screens was further validated by examining the effect of a single concentration (7 μM) on an alternative reporter cell line, bearing an integrated HIV‐1 reporter virus where luciferase expression is produced from the 5′ LTR, in cells constitutively expressing the viral TAT protein (Fig 2A), referred to as Jurkat^Tat LTR‐luciferase. Importantly, this cell line has the HIV‐1 reporter virus integrated at a different chromosomal location than that of the A1 J‐Lat cell line and also enables validation of provirus reactivation with a second enzymatic luciferase assay. In these assays, after 24‐h treatment we observed 10 compounds that produced significant induction of luciferase activity, including two compounds from the KD2 library, three from the CCBN library and five compounds from the DIVERSet. Compounds that produced significant effects in these secondary assays were re‐ordered from their respective suppliers and examined in more detail using the HIV‐luciferase reporter cell line. […] These five compounds represent diverse chemical structures (Fig 2G).
Figure 2 Concentration–response analysis for five selected PH compounds • A Schematic representation of the pTY‐LAI‐luciferase reporter virus used in secondary screening assays, where luciferase expression is under the control of the 5′ LTR, in cloned lines derived from Jurkat^TAT cells bearing single‐copy integrants. • B–F Luciferase activity was measured from reporter cells treated for 24 h with the indicated compound concentrations. Results are presented as percent activation relative to PMA‐treated controls. The EC50 for each compound is indicated. Mean and standard error (SE) for the results are determined from three biological replicates (n = 3) and technical duplicates. • G Illustration of chemical structures of the PH compounds.
Luciferase assays were performed in 96‐well plate format, where 100 μl of cell culture containing 1 × 10^5 luciferase reporter cells was plated per well. After the indicated time of treatment, 100 μl of luciferase assay reagent (SuperlightTM luciferase reporter Gene Assay Kit; BioAssay Systems) was added per well, and incubated for 2 min at RT, when luciferase activity was measured on a VictorTM X3 Multilabel Plate Reader. Results were presented relative to the positive control samples treated with 50 nM PMA. T‐cell activation was measured using 1 × 10^5 wild‐type Jurkat^Tat cells or PBMCs purified from healthy donors, treated as indicated. After 24 h, cells were incubated with 2.4G2 antibody to block nonspecific binding and further stained with 5 μl of anti‐human CD69 or an IgG1 isotype control antibody conjugated with PE‐Cy^Tm7. After 30‐min incubation on ice, the cells were washed twice with PBS and analyzed using a Becton Dickinson LSRII flow cytometer (BD Biosciences) to determine mean fluorescence intensity (MFI), using FlowJo software. The mean fluorescence intensity (MFI) obtained from cells stained with IgG isotype antibody control was subtracted from that from cells stained with CD69 to compensate for background (MFICD69‐MFIIgG). IL‐2 production was measured in cell culture supernatants using a human IL‐2 ELISA System (eBioscience). Jurkat^Tat clones bearing integrations of the mini‐dual HIV reporter virus, clone #11 and #131, were plated at 1 × 10^5 per well in a 96‐well plate format, treated for the indicated time, washed with 1 ml PBS, and then transferred into flow cytometry tubes, where they were fixed with freshly made 1% formaldehyde for 10 min at RT prior to analysis by flow cytometry. Results are presented as ΔMFI, where MFI obtained from parental Jurkat^Tat cells undergoing the same treated was subtracted from the MFI corresponding to each cell line; ΔMFI = (MFI compound‐treated cell line 131/11 − MFI compound‐treated WT Jurkat^Tat cells).

A word on the EC50: it is the concentration at which the effect is half-maximal.

For `C/C=C(/C)C(=O)O[C@H]1C(C)=C[C@]23C(=O)[C@@H](C=C(CO)[C@@H](O)[C@]12O)[C@H]1[C@@H](C[C@H]3C)C1(C)C` [PEP005, ingenol‐3‐angelate, reference compound], the “time post‐treatment at which phosphorylation is induced” value in assay [1] is 0.5 to 2 h.
As for `CC(=O)Oc1ccccc1N(C=C1Sc2ccccc2C1=O)C(C)=O` [PH02, 2‐{acetyl[(3‐oxo‐1‐benzothien‐2(3H)‐ylidene)methyl]amino}phenyl acetate], the EC50 in assay [2] amounted to 787 nM.
